The values below come from PubChem BioAssay AID328 (DTP/NCI, 2004).

SMILES strings stand for the structures. “And” between values parts separate entries of the source, which are not always exact repeats. Equal values may be shown once. Toxic doses and inconclusive results are not listed.

In the experiment the test system is BDF1 mice, P388 leukemia ip, median survival T/C. The experiment can be described thus: NCI In Vivo Anticancer Drug Screen. Data for tumor model P388 Leukemia (intraperitoneal) in B6D2F1 (BDF1) mice. Particulars: endpoint: median survival time, higher = longer survival. The method, boiled down:
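Steps: implant the tumour, treat one group with compound and another with vehicle, record survival, then divide treated by control.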

The mark [1] stands for this setting: dose: 100.0 mg/kg/injection, schedule: Q01DX009 (ip), vehicle: Klucel (hydroxypropylcellulose) (HPC).
Setting [2] is: dose: 100.0 mg/kg/injection, schedule: Q04DX003 (ip), vehicle: Klucel (hydroxypropylcellulose) (HPC).
[3] abbreviates: dose: 200.0 mg/kg/injection, schedule: Q01DX009 (ip), vehicle: Klucel (hydroxypropylcellulose) (HPC).
Setting [4] is: dose: 200.0 mg/kg/injection, schedule: Q04DX003 (ip), vehicle: Klucel (hydroxypropylcellulose) (HPC).
Setting [5] is: dose: 100.0 mg/kg/injection, schedule: Q04DX003 (ip), vehicle: saline.
[6] abbreviates: dose: 150.0 mg/kg/injection, schedule: Q04DX003 (ip), vehicle: saline.
Where [7] appears, read: dose: 200.0 mg/kg/injection, schedule: Q04DX003 (ip), vehicle: saline.
[8] abbreviates: dose: 100.0 mg/kg/injection, schedule: Q04DX003 (ip), vehicle: saline with Tween-80.
The mark [9] stands for this setting: dose: 200.0 mg/kg/injection, schedule: Q04DX003 (ip), vehicle: saline with Tween-80.
Setting [10] is: dose: 400.0 mg/kg/injection, schedule: Q04DX003 (ip), vehicle: saline with Tween-80.
The mark [11] stands for this setting: dose: 50.0 mg/kg/injection, schedule: Q04DX003 (ip), vehicle: saline with Tween-80.
[12] abbreviates: dose: 100.0 mg/kg/injection, schedule: Q01DX009 (ip), vehicle: saline.

As for `O=C(O)CCSc1ccccc1`, the T/C is, setting by setting: (dose: 50.0 mg/kg/injection, schedule: Q01DX009 (ip), vehicle: Klucel (hydroxypropylcellulose) (HPC)) 90 % of control; (dose: 50.0 mg/kg/injection, schedule: Q04DX003 (ip), vehicle: Klucel (hydroxypropylcellulose) (HPC)) 95 % of control; under setting [1], 100 % of control; under setting [2], 100 % of control; under setting [3], 109 % of control; under setting [4], 100 % of control.
Turning to `O=[N+]([O-])c1ccccc1N=N/C(Cc1ccccc1)=N\Nc1ccccc1`, the T/C is 120 % of control under setting [1] and 115 % of control under setting [3].
Take `CC(=O)OC1CCC2(C)C(CCc3ccoc3)=C(C)C(=O)CC2C1(C)C` (centres undefined): the T/C was 105 % of control (dose: 10.0 mg/kg/injection, schedule: Q01DX009 (ip), vehicle: saline + alcohol); 115 % of control (dose: 20.0 mg/kg/injection, schedule: Q01DX009 (ip), vehicle: saline + alcohol); 105 % of control (dose: 40.0 mg/kg/injection, schedule: Q01DX009 (ip), vehicle: saline + alcohol).
`C/C=C1\CN2CCc3c([nH]c4ccccc34)C2CC1Cc1nccc2c1[nH]c1ccccc12` (centres undefined): the T/C was 98 % of control (dose: 1.0 mg/kg/injection, schedule: Q04DX003 (ip), vehicle: saline); 102 % of control (dose: 2.0 mg/kg/injection, schedule: Q04DX003 (ip), vehicle: saline); 102 % of control (dose: 4.0 mg/kg/injection, schedule: Q04DX003 (ip), vehicle: saline); 107 % of control (dose: 6.0 mg/kg/injection, schedule: Q04DX003 (ip), vehicle: saline); 103 % of control (dose: 12.0 mg/kg/injection, schedule: Q04DX003 (ip), vehicle: saline); 100 % of control (dose: 24.0 mg/kg/injection, schedule: Q04DX003 (ip), vehicle: saline). In addition, under “dose: 48.0 mg/kg/injection, schedule: Q04DX003 (ip), vehicle: saline”, the T/C is 100 % of control.
For `Nc1ccn([C@@H](C=O)O[C@@H](C=O)CO)c(=O)n1`, the T/C by setting is: (dose: 8.8 mg/kg/injection, schedule: Q01DX009 (ip), vehicle: saline) 115 % of control; (dose: 66.0 mg/kg/injection, schedule: Q04DX003 (ip), vehicle: saline) 100 % of control; under setting [5], 112 % of control; under setting [6], 120 % of control; under setting [7], 150 % of control; (dose: 400.0 mg/kg/injection, schedule: Q04DX003 (ip), vehicle: saline) 181 % of control.
With `Cn1nnnc1N/N=C/c1ccccc1`, the T/C runs as follows: under setting [8], 110 % of control; under setting [9], 115 % of control; under setting [10], 100 % of control.
With `Cc1ccc(S(=O)(=O)OCCN(CCOS(=O)(=O)c2ccc(C)cc2)c2ccc(C=O)cc2)cc1`, the T/C is, setting by setting: (dose: 66.0 mg/kg/injection, schedule: Q04DX003 (ip), vehicle: saline with Tween-80) 191 % of control; under setting [8], 250 % of control; (dose: 150.0 mg/kg/injection, schedule: Q04DX003 (ip), vehicle: saline with Tween-80) 204 % of control.
In the case of `COc1ccc(/C=C/C(=O)c2ccc(OC)c(OCc3ccccc3)c2)cc1OC`, the T/C is 97 % of control (dose: 25.0 mg/kg/injection, schedule: Q01DX009 (ip), vehicle: water); 100 % of control and 121 % of control (dose: 50.0 mg/kg/injection, schedule: Q01DX009 (ip), vehicle: water); 100 % of control (dose: 50.0 mg/kg/injection, schedule: Q04DX003 (ip), vehicle: water); 100 % of control and 111 % of control (dose: 100.0 mg/kg/injection, schedule: Q01DX009 (ip), vehicle: water); 94 % of control (dose: 100.0 mg/kg/injection, schedule: Q04DX003 (ip), vehicle: water); 95 % of control and 101 % of control (dose: 200.0 mg/kg/injection, schedule: Q01DX009 (ip), vehicle: water). In addition, the T/C is 86 % of control (dose: 200.0 mg/kg/injection, schedule: Q04DX003 (ip), vehicle: water); 97 % of control (dose: 400.0 mg/kg/injection, schedule: Q01DX009 (ip), vehicle: water); 88 % of control (dose: 400.0 mg/kg/injection, schedule: Q04DX003 (ip), vehicle: water); 91 % of control (dose: 600.0 mg/kg/injection, schedule: Q01DX009 (ip), vehicle: water).
`CCN(CC)C(=O)c1ccncc1`: the T/C is 109 % of control under setting [5] and 100 % of control under setting [7].
In the case of `CN1CCC=C(C(=O)N(c2ccccc2)c2ccccc2)C1`, the T/C (dose: 50.0 mg/kg/injection, schedule: Q04DX003 (ip), vehicle: saline) is 95 % of control; the T/C under setting [5] was 100 % of control; the T/C under setting [7] was 100 % of control.
In the case of `COc1ccc(/C(C#N)=C2C=C/C(=N\O)C(C)=C/2Cl)cc1`, the T/C is, setting by setting: (dose: 12.5 mg/kg/injection, schedule: Q04DX003 (ip), vehicle: saline with Tween-80) 91 % of control; (dose: 25.0 mg/kg/injection, schedule: Q04DX003 (ip), vehicle: saline with Tween-80) 91 % of control; under setting [11], 87 % of control.
As to `CN(C)CCNC(=O)Cc1cc(O)c2c(c1O)C(=O)c1ccccc1C2=O`, the T/C by setting is: (dose: 50.0 mg/kg/injection, schedule: Q01DX005 (ip), vehicle: saline) 105 % of control; (dose: 100.0 mg/kg/injection, schedule: Q01DX005 (ip), vehicle: saline) 118 % of control.
As to `O=C(/C=C/c1cccc2ccccc12)c1ccc(Cl)cc1`, the T/C runs as follows: under setting [1], 109 % of control; under setting [2], 104 % of control; under setting [3], 95 % of control; under setting [4], 104 % of control; (dose: 400.0 mg/kg/injection, schedule: Q04DX003 (ip), vehicle: Klucel (hydroxypropylcellulose) (HPC)) 95 % of control.
On to `CC(O)C(=O)Oc1ccccc1` (centres undefined), for which the T/C under setting [12] is 90 % of control and the T/C (dose: 200.0 mg/kg/injection, schedule: Q01DX009 (ip), vehicle: saline) is 109 % of control.
Take `CC1=CC(=O)C2=C(C)CCC3C(C)C(=O)OC3C12` (centres undefined): the T/C by setting is: under setting [8], 100 % of control; under setting [9], 111 % of control; under setting [10], 116 % of control.
As for `N#CC1CCCC1=O` (centres undefined), the T/C is, setting by setting: (dose: 5.0 mg/kg/injection, schedule: Q01DX009 (ip), vehicle: saline) 108 % of control; (dose: 10.0 mg/kg/injection, schedule: Q01DX009 (ip), vehicle: saline) 91 % of control.
For `CCOC(=O)C[n+]1ccccc1`, the T/C was 100 % of control (dose: 25.0 mg/kg/injection, schedule: Q01DX009 (ip), vehicle: saline); 118 % of control (dose: 50.0 mg/kg/injection, schedule: Q01DX009 (ip), vehicle: saline); 90 % of control under setting [11]; 104 % of control (dose: 75.0 mg/kg/injection, schedule: Q04DX003 (ip), vehicle: saline); 90 % of control under setting [12]; 90 % of control under setting [8]. Further, the T/C under setting [6] was 109 % of control.
